Data: PubChem BioAssay (NCI)
Values joined by “and” are separate entries in the source; they are usually repeats but may differ in a detail not shown here. Equal entries are not always repeated.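 Where inhibition never reached the appropriate level, the endpoint shown equals the highest concentration tested. Otherwise, values were interpolated linearly from a five-concentration, 48-hour dose response in 96-well plates. GI50 is the concentration that inhibits growth by half. TGI is the concentration that stops growth completely.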

Experiments:
Assay in all cases: NCI-60 cell line screen, 48 h
NCI-H23 lung = tested on: NCI-H23 lung
NCI-H460 lung = tested on: NCI-H460 lung
NCI-H522 lung = tested on: NCI-H522 lung
NCI/ADR-RES ovarian = tested on: NCI/ADR-RES ovarian
OVCAR-3 ovarian = tested on: OVCAR-3 ovarian
OVCAR-4 ovarian = tested on: OVCAR-4 ovarian
OVCAR-5 ovarian = tested on: OVCAR-5 ovarian
OVCAR-8 ovarian = tested on: OVCAR-8 ovarian
PC-3 prostate = tested on: PC-3 prostate
RPMI-8226 leukemia = tested on: RPMI-8226 leukemia
RXF 393 renal = tested on: RXF 393 renal
SF-268 CNS = tested on: SF-268 CNS
SF-295 CNS = tested on: SF-295 CNS
SF-539 CNS = tested on: SF-539 CNS
SK-MEL-2 melanoma = tested on: SK-MEL-2 melanoma
SK-MEL-28 melanoma = tested on: SK-MEL-28 melanoma
SK-MEL-5 melanoma = tested on: SK-MEL-5 melanoma
SK-OV-3 ovarian = tested on: SK-OV-3 ovarian
SN12C renal = tested on: SN12C renal
SNB-19 CNS = tested on: SNB-19 CNS
SNB-75 CNS = tested on: SNB-75 CNS
SR leukemia = tested on: SR leukemia
SW-620 colon = tested on: SW-620 colon
T-47D breast = tested on: T-47D breast
TK-10 renal = tested on: TK-10 renal
U251 CNS = tested on: U251 CNS
UACC-257 melanoma = tested on: UACC-257 melanoma
UACC-62 melanoma = tested on: UACC-62 melanoma
UO-31 renal = tested on: UO-31 renal

SMILES: NC1(c2ccc(-c3nc4ccn5c(=O)[nH]nc5c4cc3-c3ccccc3)cc2)CCC1
- GI50 (NCI-H23 lung): 13.1 µM and > 10 µM and 13.2 µM
- TGI (NCI-H23 lung): 28.3 µM and > 10 µM and 27.2 µM
- GI50 (NCI-H460 lung): 0.231 µM and 0.679 µM and 1.19 µM
- TGI (NCI-H460 lung): 17.7 µM and > 10 µM and 18.5 µM
- GI50 (NCI-H522 lung): 7.95 µM and > 10 µM and 11.6 µM
- TGI (NCI-H522 lung): 23.2 µM and > 10 µM and 26 µM
- GI50 (NCI/ADR-RES ovarian): 11.9 µM and > 10 µM and 12.8 µM
- TGI (NCI/ADR-RES ovarian): 26.2 µM and > 10 µM and 26.9 µM
- GI50 (OVCAR-3 ovarian): 0.607 µM and 0.841 µM and 0.814 µM
- TGI (OVCAR-3 ovarian): 18.9 µM and > 10 µM and 18.5 µM
- GI50 (OVCAR-4 ovarian): 5.57 µM and > 10 µM and 14.7 µM
- TGI (OVCAR-4 ovarian): 14 µM and > 10 µM and 30.5 µM
- GI50 (OVCAR-5 ovarian): 11.6 µM and > 10 µM and 12.6 µM
- TGI (OVCAR-5 ovarian): 24.7 µM and > 10 µM and 25.7 µM
- GI50 (OVCAR-8 ovarian): 12.6 µM and > 10 µM and 14.9 µM
- TGI (OVCAR-8 ovarian): 28.2 µM and > 10 µM and 30.8 µM
- GI50 (PC-3 prostate): 0.0523 µM and 0.135 µM and 0.141 µM
- TGI (PC-3 prostate): 17 µM and > 10 µM and 17.3 µM
- GI50 (RPMI-8226 leukemia): 7 µM and > 8.21 µM and 6.27 µM
- TGI (RPMI-8226 leukemia): 23.2 µM and > 10 µM and 28.4 µM
- GI50 (RXF 393 renal): 0.0971 µM and 0.417 µM and 0.129 µM
- TGI (RXF 393 renal): 1.37 µM and 5.66 µM and 1.11 µM
- GI50 (SF-268 CNS): 12.2 µM and > 10 µM and 12.3 µM
- TGI (SF-268 CNS): 26.4 µM and > 10 µM and 27 µM
- GI50 (SF-295 CNS): 0.267 µM and 0.698 µM and 0.611 µM
- TGI (SF-295 CNS): 5.22 µM and > 10 µM and 13.9 µM
- GI50 (SF-539 CNS): 0.197 µM and 1.71 µM and 1.63 µM
- TGI (SF-539 CNS): 5.77 µM and > 10 µM and 14 µM
- GI50 (SK-MEL-2 melanoma): 14.9 µM and > 10 µM and 15.7 µM
- TGI (SK-MEL-2 melanoma): 30.2 µM and > 10 µM and 31.4 µM
- GI50 (SK-MEL-28 melanoma): 1.27 µM and > 10 µM and 7.49 µM
- TGI (SK-MEL-28 melanoma): 5.37 µM and > 10 µM and 21.6 µM
- GI50 (SK-MEL-5 melanoma): 2.09 µM and > 10 µM and 11.1 µM
- TGI (SK-MEL-5 melanoma): 5.79 µM and > 10 µM and 23.2 µM
- GI50 (SK-OV-3 ovarian): 0.212 µM and 0.191 µM and 0.449 µM
- TGI (SK-OV-3 ovarian): 15.1 µM and > 5.49 µM and 14.9 µM
- GI50 (SN12C renal): 6.95 µM and > 10 µM and 10.6 µM
- TGI (SN12C renal): 21.7 µM and > 10 µM and 22.7 µM
- GI50 (SNB-19 CNS): 2.64 µM and 3.84 µM and 5.83 µM
- TGI (SNB-19 CNS): 15.6 µM and > 10 µM and 20.2 µM
- GI50 (SNB-75 CNS): 0.051 µM and 0.105 µM and 0.12 µM
- TGI (SNB-75 CNS): 3.35 µM and 2.62 µM and 4.53 µM
- GI50 (SR leukemia): 7.28 µM and > 4.45 µM and 8.51 µM
- TGI (SR leukemia): 19.6 µM and 9.81 µM and 33.2 µM
- GI50 (SW-620 colon): 14.2 µM and > 10 µM and 15 µM
- TGI (SW-620 colon): 28.7 µM and > 10 µM and 29.8 µM
- GI50 (T-47D breast): 0.0198 µM and 0.0234 µM and 0.0639 µM
- GI50 (TK-10 renal): 0.506 µM and 0.477 µM and 0.908 µM
- TGI (TK-10 renal): 21.2 µM and > 10 µM and 18.4 µM
- GI50 (U251 CNS): 2.34 µM and 2.68 µM and 3.65 µM
- TGI (U251 CNS): 14.7 µM and > 10 µM and 20 µM
- GI50 (UACC-257 melanoma): 1.54 µM and > 10 µM and 12.7 µM
- TGI (UACC-257 melanoma): 5.42 µM and > 10 µM and 26.8 µM
- GI50 (UACC-62 melanoma): 0.255 µM and 0.804 µM and 0.811 µM
- TGI (UACC-62 melanoma): 15.3 µM and > 10 µM and 18 µM
- GI50 (UO-31 renal): 0.765 µM and 0.344 µM and 1.08 µM
- TGI (UO-31 renal): 18.3 µM and > 10 µM and 3.06 µM
